According to paper PMC6104039 (Nature Communications, 2018):
“And” between values parts separate entries of the source, which are not always exact repeats. Equal entries are not always repeated. “Also recorded” adds a separate entry of the source.

Tests used:
[1] = target: T1, recombinant human sphingosine kinase 2 (Homo sapiens, UniProt Q9NRA0); test: Sphingosine kinase assay with NBD-dihydrosphingosine, TLC; format: biochemical; settings: 10 μM
T1 construct: purchased R&D Systems
Procedure: Sphingosine kinase assays were performed using fluorescent NBD-dihydrosphingosine[63],[64]. […] Reactions were stopped with 100 μL methanol, and 5 μL amounts were resolved on Silica Gel 60 thin layer chromatography (TLC) plates using butanol:acetic acid:water (3:1:1). The fluorescent NBD-dihydrosphingosine 1-phosphate band was quantified using a BioRad ChemiDoc imaging system with excitation by UV light.
Supplementary Figure 2. […] Activity of recombinant
human sphingosine kinases 1 and 2 (SphK1 and 2) was assessed in the presence of 10 µM
Activity is expressed as a percentage of the vehicle control.

[2] = P053 accumulation in tissues, LC-MS/MS; format: in vivo, mice; settings: 5 mg/kg daily for 2 weeks
cerebellum = test: Ceramide, SM and HexCer levels in cerebellum; format: in vivo, mice; settings: individual mice, raw data for Supplementary Figure 7;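 as to Cer 18:1/18:0 content of cerebellum: pmol per mg cerebellum tissue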;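 as to Cer 18:1/24:0 content of cerebellum: pmol per mg cerebellum tissue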;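 as to Cer 18:1/24:1 content of cerebellum: pmol per mg cerebellum tissue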;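 as to Cer 18:2/18:0 content of cerebellum: pmol per mg cerebellum tissue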;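 as to HexCer 18:1 content of cerebellum: pmol per mg cerebellum tissue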;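 as to HexCer 20:1 content of cerebellum: pmol per mg cerebellum tissue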;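 as to HexCer 22:1 content of cerebellum: pmol per mg cerebellum tissue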;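 as to HexCer 24:0 content of cerebellum: pmol per mg cerebellum tissue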;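 as to SM 32:1 content of cerebellum: pmol per mg cerebellum tissue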;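 as to SM 34:2 content of cerebellum: pmol per mg cerebellum tissue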;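 as to SM 36:1 content of cerebellum: pmol per mg cerebellum tissue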;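 as to SM 36:2 content of cerebellum: pmol per mg cerebellum tissue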;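 as to SM 40:1 content of cerebellum: pmol per mg cerebellum tissue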;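 as to SM 40:2 content of cerebellum: pmol per mg cerebellum tissue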;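 as to SM 42:1 content of cerebellum: pmol per mg cerebellum tissue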;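 as to SM 42:2 content of cerebellum: pmol per mg cerebellum tissue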
Text: Supplementary Figure 7. […] Ceramide, SM, and HexCer […]
levels in the cerebellum of vehicle- or P053-treated mice on a chow or HFD. N = 10 mice per group, except for chow vehicle group (n = 9). Mean ± SEM shown. No lipids were […]
comparisons. C18:0 HexCer was 45% lower in the P053-treated compared to the vehicle-treated HFD group (unadjusted P value = 0.02; adjusted value P = 0.16). Raw data for these figures is provided in Supplementary Data File 1.

T1 sequence (Q9NRA0 whole entry): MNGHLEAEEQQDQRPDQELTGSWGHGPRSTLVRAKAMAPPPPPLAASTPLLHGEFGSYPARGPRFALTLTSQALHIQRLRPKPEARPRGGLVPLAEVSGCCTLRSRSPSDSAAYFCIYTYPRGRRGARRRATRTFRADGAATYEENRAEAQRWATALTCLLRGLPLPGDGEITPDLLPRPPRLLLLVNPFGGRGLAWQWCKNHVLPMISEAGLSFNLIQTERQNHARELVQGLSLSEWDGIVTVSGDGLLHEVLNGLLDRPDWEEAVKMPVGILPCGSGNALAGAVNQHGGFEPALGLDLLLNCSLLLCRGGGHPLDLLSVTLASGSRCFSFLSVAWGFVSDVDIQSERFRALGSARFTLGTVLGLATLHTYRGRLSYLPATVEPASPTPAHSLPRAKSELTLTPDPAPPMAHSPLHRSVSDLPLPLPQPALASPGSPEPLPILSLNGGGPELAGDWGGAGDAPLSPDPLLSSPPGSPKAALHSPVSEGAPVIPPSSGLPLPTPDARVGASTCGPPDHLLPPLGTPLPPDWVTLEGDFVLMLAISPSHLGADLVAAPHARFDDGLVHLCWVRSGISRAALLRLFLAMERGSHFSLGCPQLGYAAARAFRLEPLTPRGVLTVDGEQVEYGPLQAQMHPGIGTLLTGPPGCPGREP

For `C[C@@](N)(CO)CCc1ccc(OCc2ccc(Cl)c(Cl)c2)cc1` [P053, (S)-2-amino-4-(4-(3,4-dichlorobenzyloxy)phenyl)-2-methylbutan-1-ol], which “inhibition of sphingosine kinase 2” value [1] is on record?
The value was “did not inhibit; also recorded: does not inhibit; also recorded: no inhibitory activity”.

And the “compound distribution in tissues” value [2]?
Its value is “higher in liver and kidney than in muscle and adipose tissue”.

And the “levels of the compound in brain tissue compared to SkM” value [2]?
The value was “three-fold lower”.

And the “uptake in the liver” value [2]?
The value was “substantial uptake”.

What about the “Cer 18:1/16:0 content of cerebellum” value (cerebellum; Chow + P053) of the same compound?
The value was 3.617 and 2.396 and 2.239 and 1.878 and 1.763 and 7.091 and 4.235 and 4.186 and 2.745 and 2.729.

What about the “Cer 18:1/18:0 content of cerebellum” value (cerebellum; Chow + P053) of the same compound?
The value was 141.97 and 85.5119 and 108.595 and 104.792 and 97.4561 and 431.392 and 196.381 and 275.197 and 135.779 and 146.615.

What about the “Cer 18:1/20:0 content of cerebellum” value (cerebellum; Chow + P053) of the same compound?
The value was 10.8793 and 8.155 and 10.4755 and 10.5072 and 6.176 and 36.1314 and 20.5959 and 26.7359 and 12.6268 and 16.6128.

And the “Cer 18:1/22:0 content of cerebellum” value (cerebellum; Chow + P053)?
The value was 14.5276 and 15.0246 and 22.6132 and 25.2761 and 10.65 and 51.7937 and 37.5604 and 49.7318 and 29.1858 and 28.3511.

What about the “Cer 18:1/24:0 content of cerebellum” value (cerebellum; Chow + P053) of the same compound?
The value was 25.164 and 39.1513 and 61.4338 and 64.1688 and 24.2127 and 137.911 and 88.346 and 158.631 and 89.2495 and 92.5091.

And the “Cer 18:1/24:1 content of cerebellum” value (cerebellum; Chow + P053)?
Its value is 194.92 and 106.297 and 150.541 and 182.076 and 61.3337 and 311.08 and 260.185 and 253.268 and 147.127 and 119.244.

And the “Cer 18:2/18:0 content of cerebellum” value (cerebellum; Chow + P053)?
Its value is 6.1678 and 7.469 and 7.847 and 9.952 and 5.015 and 15.2517 and 13.7543 and 19.4608 and 12.754 and 10.8001.

What about the “HexCer 16:0 content of cerebellum” value (cerebellum; Chow + P053) of the same compound?
Its value is 2.618 and 11.905 and 12.0787 and 17.3566 and 8.981 and 4.913 and 10.616 and 11.083 and 11.1713 and 10.2043.

What about the “HexCer 18:0 content of cerebellum” value (cerebellum; Chow + P053) of the same compound?
The value was 28.8093 and 286.922 and 231.007 and 375.961 and 165.705 and 81.8257 and 140.616 and 234.577 and 281.805 and 232.737.

And the “HexCer 18:1 content of cerebellum” value (cerebellum; Chow + P053)?
The value was 4.066 and 35.919 and 27.4449 and 39.8082 and 28.3147 and 12.0017 and 18.6127 and 33.0051 and 39.5714 and 38.2232.

And the “HexCer 20:0 content of cerebellum” value (cerebellum; Chow + P053)?
The value was 5.379 and 62.6592 and 42.0891 and 61.8563 and 40.4642 and 16.7817 and 19.6222 and 44.5602 and 56.0811 and 52.6344.

What about the “HexCer 20:1 content of cerebellum” value (cerebellum; Chow + P053) of the same compound?
The value was 0.8503 and 3.88 and 2.4108 and 3.569 and 3.668 and 1.176 and 1.073 and 2.879 and 4.092 and 4.073.

And the “HexCer 22:0 content of cerebellum” value (cerebellum; Chow + P053)?
The value was 103.858 and 933.202 and 709.42 and 853.076 and 744.844 and 421.086 and 403.774 and 821.636 and 996.669 and 1011.42.

What about the “HexCer 22:1 content of cerebellum” value (cerebellum; Chow + P053) of the same compound?
Its value is 67.4582 and 171.007 and 113.764 and 201.906 and 106.093 and 35.9387 and 77.6418 and 92.6997 and 107.257 and 90.5981.

And the “HexCer 24:0 content of cerebellum” value (cerebellum; Chow + P053)?
Its value is 564.043 and 4618.59 and 3773.48 and 4286.71 and 3653.78 and 2395.46 and 2157.01 and 3975.05 and 5039.63 and 4758.34.

And the “HexCer 24:1 content of cerebellum” value (cerebellum; Chow + P053)?
The value was 3233.35 and 7019.2 and 5377.98 and 7770.21 and 6449.16 and 3511.89 and 4048.72 and 5184.76 and 6290.34 and 5656.27.

What about the “SM 32:1 content of cerebellum” value (cerebellum; Chow + P053) of the same compound?
Its value is 7.744 and 10.8885 and 9.082 and 12.3443 and 9.858 and 7.664 and 8.692 and 8.551 and 8.187 and 8.4615.

And the “SM 34:1 content of cerebellum” value (cerebellum; Chow + P053)?
Its value is 82.5407 and 146.305 and 94.5019 and 129.483 and 151.913 and 73.8551 and 80.0167 and 90.7654 and 102.782 and 113.569.

And the “SM 34:2 content of cerebellum” value (cerebellum; Chow + P053)?
The value was 7.207 and 9.9108 and 8.648 and 11.4512 and 8.062 and 5.446 and 4.538 and 7.185 and 8.297 and 8.329.

And the “SM 36:1 content of cerebellum” value (cerebellum; Chow + P053)?
The value was 194.844 and 464.875 and 291.749 and 380.257 and 596.135 and 225.303 and 199.676 and 294.675 and 315.392 and 396.468.

What about the “SM 36:2 content of cerebellum” value (cerebellum; Chow + P053) of the same compound?
The value was 59.5005 and 77.3429 and 59.1592 and 95.459 and 61.3204 and 42.7823 and 27.3474 and 61.4896 and 55.0172 and 56.8047.

And the “SM 38:1 content of cerebellum” value (cerebellum; Chow + P053)?
The value was 38.445 and 174.02 and 119.141 and 145.805 and 204.374 and 106.701 and 86.1831 and 141.777 and 157.803 and 199.243.

What about the “SM 38:2 content of cerebellum” value (cerebellum; Chow + P053) of the same compound?
The value was 7.207 and 11.8634 and 6.682 and 10.3765 and 10.2552 and 3.609 and 2.903 and 5.065 and 7.083 and 7.8.

And the “SM 40:1 content of cerebellum” value (cerebellum; Chow + P053)?
The value was 51.2464 and 304.001 and 220.117 and 327.562 and 242.07 and 125.331 and 158.353 and 223.684 and 258.853 and 295.067.

What about the “SM 40:2 content of cerebellum” value (cerebellum; Chow + P053) of the same compound?
Its value is 51.3559 and 98.4003 and 64.6125 and 113.428 and 67.3016 and 27.1328 and 51.0354 and 51.6641 and 60.1105 and 65.3939.

And the “SM 42:1 content of cerebellum” value (cerebellum; Chow + P053)?
Its value is 47.6271 and 371.292 and 288.623 and 388.513 and 255.841 and 158.489 and 203.273 and 296.49 and 332.331 and 358.331.

What about the “SM 42:2 content of cerebellum” value (cerebellum; Chow + P053) of the same compound?
The value was 660.19 and 1132.13 and 807.257 and 1283.01 and 802.501 and 434.477 and 634.337 and 659.388 and 719.281 and 714.687.

What about the “Cer 18:1/16:0 content of cerebellum” value (cerebellum; HFD + P053) of the same compound?
The value was 2.762 and 1.437 and 5.744 and 2.262 and 3.928 and 1.548 and 1.88 and 7.07 and 1.652 and 5.347.

What about the “Cer 18:1/18:0 content of cerebellum” value (cerebellum; HFD + P053) of the same compound?
The value was 128.546 and 82.2707 and 288.623 and 116.318 and 172.743 and 86.572 and 112.409 and 311.979 and 100.825 and 239.53.

What about the “Cer 18:1/20:0 content of cerebellum” value (cerebellum; HFD + P053) of the same compound?
Its value is 9.681 and 8.421 and 28.463 and 10.3564 and 18.7569 and 5.821 and 8.037 and 34.6254 and 7.548 and 24.475.
